{"source": "patent US20220010279A1", "about": "“KITS AND METHODS FOR PERFORMING OPTICAL DYNAMIC CLAMP ON EXCITABLE CELLS” (CORNELL UNIVERSITY, priority 2018, published 2022)", "tested_on": "iPSC-CMs", "assay": "Paced action potentials (perforated patch clamp; control, EDC or ODC with added IK1) after E-4031 addition", "type": "cell-based, human", "settings": "for APD90 after E-4031 addition: 500 nM E-4031 perfused 2 minutes, all cells, FIG. 7A", "description": "Cor.4U hiPSC-CMs (Axiogenesis, Cologne, Germany) were thawed, seeded, and maintained according to the protocols provided by the manufacturer. The cells were seeded on 0.5% gelatin-coated 8 mm coverslips and plated at 100,000 cells/mL. Cells were incubated for at least 7 days post thaw prior to use for experiments.\nAdenoviral vector was constructed using the Addgene (Cambridge, Mass.) plasmid pAAV-CAG-ArchT-GFP, deposited by K. Deisseroth's laboratory (plasmid 20940) (Ambrosi C M, et al. Methods Mol Biol. 2014, 1181:215-28; Yu J, et al. Methods Mol Biol. 2016, 1408:303-17). ArchT was expressed in iPSC-CMs using MOIs of 250-300, as described in previously published protocols using an adenovirus (Ambrosi C M, et al. Methods Mol Biol. 2014, 1181:215-28; Yu J, et al. Methods Mol Biol. 2016, 1408:303-1). Determination of successful infection was confirmed via eGFP fluorescence. Functionality of ArchT was confirmed by illuminating the cells with an LED (M565L3, ThorLabs) at 595 nm through a 40× objective and observing the amount of hyperpolarization of the membrane potential under current clamp. Stability of IArchT was measured with a voltage and light clamp protocol over time to investigate rundown with ArchT illumination (FIGS. 18A-18B).\nBorosilicate glass pipettes were pulled to a resistance of 1-3 MΩ using a flaming/brown micropipette puller (Model P-1000, Sutter Instrument). The pipettes were filled with intracellular solution containing (mM) 10 NaCl, 130 KCl, 1 MgCl2, 10 CaCl2, 5.5 Dextrose, 10 HEPES. For perforated patch, the pipette was first backfilled by dipping the pipette tip into the intracellular solution for 10 seconds. Only the very tip contained the intracellular solution without any gramicidin to minimize the amount of gramicidin exiting the pipette prior to obtaining a giga-ohm seal. The pipette was then filled with the intracellular solution containing 8 μg/mL gramicidin passed through a 0.25 μm filter. […] The high calcium concentration in the intracellular pipette solution serves to verify the integrity of the patch as patch rupture under these conditions would lead to immediate cell contracture (Ishihara K, et al. J Physiol. 2004, 540(3):831-41). The coverslips containing iPSC-CMs were placed in the bath and constantly perfused with an extracellular solution at 37° C. containing (mM) 137 NaCl, 5.4 KCl, 1 MgSO4, 2 CaCl2, 10 Dextrose, 10 HEPES. GFP-expressing single cells that were visibly contracting were chosen for experiments. Patch-clamp measurements were made by a patch-clamp amplifier (Model 2400, A-M Systems, Inc) controlled by the Real Time eXperiment Interface (RTXI) to coordinate the amplifier via the data acquisition card (PCI-6025E, National Instruments). The voltage was corrected for the calculated liquid junction potential of −2.8 mV. RTXI was also used to control the LED light intensity. The series resistance was less than 10 MΩ and was not compensated.\nTo test the feasibility of using ArchT to inject a target current, stimulated action potentials under the EDC system were compared to those of the ODC platform at three different pacing frequencies: 0.5, 1 and 2 Hz. The cells were stimulated 10 times at 0.5, 1 and 2 Hz sequentially under three conditions (the order of which was randomized): (A) control, in which no additional current was added, (B) addition of Itarget with EDC, and (C) and addition of Itarget with ODC.\nAfter the cells had undergone the aforementioned pacing protocol under the same three conditions, 500 nM E-4031 (a class III antiarrhythmic drug that blocks potassium channels, primarily of the human ether-a-go-go related gene (hERG) type) was perfused into the bath containing the coverslip of iPSC-CMs for 2 minutes. Experiments were again conducted under the same pacing protocol and conditions to measure the effect of IKr inhibition. […]"}
{"smiles": "Cc1cccc(CCN2CCC(C(=O)c3ccc(NS(C)(=O)=O)cc3)CC2)n1", "note": "[E-4031]", "values": [{"measurement": "APD with E-4031 addition", "setting": "500 nM E-4031, example cell 13 paced at 0.5 Hz, control, EDC and ODC conditions, FIG. 6A-C", "result": "increases"}, {"measurement": "drug-induced APD prolongation, control (without dynamic clamp) cells compared to EDC and ODC", "setting": "500 nM E-4031, paced at 0.5 Hz", "result": "more dramatic"}, {"measurement": "triangulation (APD90-APD30), control (without dynamic clamp) cells compared to EDC and ODC", "setting": "500 nM E-4031, paced at 0.5 Hz", "result": "larger"}, {"measurement": "APD90 after E-4031 addition", "setting": "paced at 0.5 Hz, Itarget (IK1) added with EDC", "result": "increased"}, {"measurement": "APD90 after E-4031 addition", "setting": "paced at 0.5 Hz, Itarget (IK1) added with ODC", "result": "increased"}, {"measurement": "APD90 after E-4031 addition", "setting": "paced at 0.5 Hz, control (no current addition)", "result": "increased"}]}
